Assay results reported in article PMC10870114 (Clinical Cancer Research, 2023).

Tests used:
[1] = test system: locally advanced rectal cancer; test: Tumor response; type: in vivo, human
[2] = test system: patients with locally advanced rectal cancer; test: Late toxicities and deaths after the on-treatment period; type: in vivo, human
[3] = Overall, peposertib 50-250 mg + RT + capecitabine, n = 19
[4] = peposertib 50 mg + RT + capecitabine, n = 1
[5] = peposertib 100 mg + RT + capecitabine, n = 6
[6] = peposertib 150 mg + RT + capecitabine, n = 6
[7] = peposertib 250 mg + RT + capecitabine, n = 6

COc1ccc([C@@H](O)c2cc(-c3ncnc4cc(N5CCOCC5)ccc34)c(F)cc2Cl)nn1 [Peposertib]
cCR rate ([1]; 8 weeks after CRT completion, all cohorts, n = 3 of 19): 15.8%
Clinical complete response: Responders [1, 3]: 3 (15.8) n (%)
Clinical response: Complete response [1, 3]: 3 (15.8) n (%)
Clinical response: Incomplete response [1, 3]: 4 (21.1) n (%)
Clinical response: Near-complete response [1, 3]: 8 (42.1) n (%)
Clinical response: Progressive disease [1, 3]: 0 (0) n (%)
Composite endpoint cCR/pCR: Responders [1, 3]: 1 (5.3) n (%)
Pathologic complete response: Responders [1, 3]: 0 (0) n (%)
Composite endpoint cCR/pCR rate ([1]; all cohorts, one of 19 patients (100-mg cohort)): 5.3%
Patients achieving pCR ([1]; of the nine patients who opted for surgery): none
Clinical complete response: Responders [1, 4]: 0 (0) n (%)
Clinical response: Complete response [1, 4]: 0 (0) n (%)
Clinical response: Incomplete response [1, 4]: 0 (0) n (%)
Clinical response: Near-complete response [1, 4]: 1 (100) n (%)
Clinical response: Progressive disease [1, 4]: 0 (0) n (%)
Composite endpoint cCR/pCR: Responders [1, 4]: 0 (0) n (%)
Pathologic complete response: Responders [1, 4]: 0 (0) n (%)
Clinical complete response: Responders [1, 5]: 1 (16.7) n (%)
Clinical response: Complete response [1, 5]: 1 (16.7) n (%)
Clinical response: Incomplete response [1, 5]: 1 (16.7) n (%)
Clinical response: Near-complete response [1, 5]: 2 (33.3) n (%)
Clinical response: Progressive disease [1, 5]: 0 (0) n (%)
Composite endpoint cCR/pCR: Responders [1, 5]: 1 (16.7) n (%)
Pathologic complete response: Responders [1, 5]: 0 (0) n (%)
Clinical complete response: Responders [1, 6]: 1 (16.7) n (%)
Clinical response: Complete response [1, 6]: 1 (16.7) n (%)
Clinical response: Incomplete response [1, 6]: 2 (33.3) n (%)
Clinical response: Near-complete response [1, 6]: 2 (33.3) n (%)
Clinical response: Progressive disease [1, 6]: 0 (0) n (%)
Composite endpoint cCR/pCR: Responders [1, 6]: 0 (0) n (%)
Pathologic complete response: Responders [1, 6]: 0 (0) n (%)
Clinical complete response: Responders [1, 7]: 1 (16.7) n (%)
Clinical response: Complete response [1, 7]: 1 (16.7) n (%)
Clinical response: Incomplete response [1, 7]: 1 (16.7) n (%)
Clinical response: Near-complete response [1, 7]: 3 (50.0) n (%)
Clinical response: Progressive disease [1, 7]: 0 (0) n (%)
Composite endpoint cCR/pCR: Responders [1, 7]: 0 (0) n (%)
Pathologic complete response: Responders [1, 7]: 0 (0) n (%)
Dose dependence of late toxicities ([2]; across the peposertib dose range): no discernible indication of a dose-dependent effect
Late toxicities: anemia ([2]; all cohorts): 3 n
Patients with late toxicities ([2]; all cohorts, 18 patients, data cutoff March 22, 2022): 94.7%
Grade ≥3 late toxicities ([2]; all cohorts, at data cutoff): 11 patients
Late toxicities: proctitis ([2]; all cohorts, n = 3): 15.8%
Late toxicities: gastrointestinal disorders ([2]; all cohorts, n = 12): 63.2%
Patients who died during the study ([2]; all considered unrelated to study treatment, not treatment-emergent): Three
